Patent publication US20240300937A1, “Substituted 6-(Pyrimidin-4-yl)Quinoline Compounds as Cyclin Dependent Kinase Inhibitors” (BeiGene, Ltd., priority 2022, published 2024)

Columns and labels:
[1] = biological target: CDK4/Cyclin D1 (Homo sapiens (Human), UniProt P11802); test: CDK4/Cyclin D1 kinase TR-FRET inhibition assay; type: biochemical; details: 1 mM ATP, Rb (Ser780)-biotin substrate, read-out: CDK4D1 IC50
Description: (§1) Compounds disclosed herein were tested for inhibition of CDK4/Cyclin D1 or CDK6/Cyclin D3 kinase in an assay based on the time-resolved fluorescence-resonance energy transfer (TR-FRET) methodology. The assay was carried out in 384-well low volume black plates in a reaction mixture containing CDK4/Cyclin D1 or CDK6/Cyclin D3, 1 mM ATP, 0.15 μM Rb (Ser780)-biotin substrate and 0-10 μM compound in buffer containing 50 mM HEPES pH7.0, 0.02% NaN3, 0.01% BSA, 0.1 mM Orthovanadate, 50 mM MgCl2, 1 mM DTT and 0.005% Tween-20. The kinase was incubated with compound for 60 minutes at room temperature and the reaction was initiated by the addition of ATP and Rb (Ser780)-biotin substrate. After reaction at room temperature for 120 minutes, an equal volume of stop/detection solution was added according to the manufacture's instruction (Cisbio Bioassays). The stop/detection solution contained Streptavidin-XL665 and Anti-pRb (Ser780) mAb-Eu Cryptate in Detection buffer (Cisbio Bioassays). Plates were incubated at room temperature for 60 minutes, and the TR-FRET signals (ex337 nm, em665 nm/620 nm) were recorded on a PHERAstar FSX plate reader (BMG Labtech). The inhibition percentage of CDK4/Cyclin D1 or CDK6/Cyclin D3 kinase activity in presence of increasing concentrations of compounds was calculated based on the ratio of fluorescence at 665 nm to that at 620 nm. The IC50 for each compound was derived from fitting the data to the four-parameter logistic equation by Dotmatics.

[2] = biological target: CDK6/Cyclin D3 (Homo sapiens (Human), UniProt Q00534); test: CDK6/Cyclin D3 kinase TR-FRET inhibition assay; type: biochemical; details: 1 mM ATP, Rb (Ser780)-biotin substrate, read-out: CDK6D3 IC50
Description: as §1

Sequence of CDK6/Cyclin D3 (Q00534 whole entry): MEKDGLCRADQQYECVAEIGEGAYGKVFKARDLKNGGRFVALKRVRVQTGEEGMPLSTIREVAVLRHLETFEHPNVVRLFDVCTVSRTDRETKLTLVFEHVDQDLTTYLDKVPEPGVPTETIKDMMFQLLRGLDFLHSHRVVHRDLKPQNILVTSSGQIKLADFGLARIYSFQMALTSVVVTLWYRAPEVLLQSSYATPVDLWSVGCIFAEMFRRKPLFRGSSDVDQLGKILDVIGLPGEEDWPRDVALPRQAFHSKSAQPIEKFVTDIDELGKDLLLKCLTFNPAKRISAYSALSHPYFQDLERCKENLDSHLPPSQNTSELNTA
Sequence of CDK6/Cyclin D3 (P30281 whole entry partner): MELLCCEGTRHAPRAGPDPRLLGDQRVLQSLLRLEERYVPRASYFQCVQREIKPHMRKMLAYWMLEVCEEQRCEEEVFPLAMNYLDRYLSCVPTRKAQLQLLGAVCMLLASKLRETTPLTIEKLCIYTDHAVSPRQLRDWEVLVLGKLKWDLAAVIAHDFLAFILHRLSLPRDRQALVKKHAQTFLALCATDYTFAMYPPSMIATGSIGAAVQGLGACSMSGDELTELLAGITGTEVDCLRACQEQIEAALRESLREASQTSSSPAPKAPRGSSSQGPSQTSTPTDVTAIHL
Sequence of CDK4/Cyclin D1 (P11802 whole entry): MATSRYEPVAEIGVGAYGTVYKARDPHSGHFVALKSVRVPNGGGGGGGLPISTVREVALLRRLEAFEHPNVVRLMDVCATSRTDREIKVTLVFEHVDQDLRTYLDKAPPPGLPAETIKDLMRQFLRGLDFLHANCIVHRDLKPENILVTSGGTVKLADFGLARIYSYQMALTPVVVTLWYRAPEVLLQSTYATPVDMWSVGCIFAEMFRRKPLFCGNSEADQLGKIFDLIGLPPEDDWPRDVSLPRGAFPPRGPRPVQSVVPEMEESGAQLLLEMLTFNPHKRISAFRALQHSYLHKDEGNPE
Sequence of CDK4/Cyclin D1 (P24385 whole entry partner): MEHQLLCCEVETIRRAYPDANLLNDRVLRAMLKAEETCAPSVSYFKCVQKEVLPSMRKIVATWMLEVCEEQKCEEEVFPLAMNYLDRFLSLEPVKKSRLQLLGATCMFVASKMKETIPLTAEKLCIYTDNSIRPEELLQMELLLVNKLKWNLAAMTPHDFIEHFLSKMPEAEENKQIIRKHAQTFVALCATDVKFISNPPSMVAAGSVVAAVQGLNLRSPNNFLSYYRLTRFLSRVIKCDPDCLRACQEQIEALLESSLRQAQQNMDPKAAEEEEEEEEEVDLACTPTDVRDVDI

Row | Compound | IC50 [1] | IC50 [2]
1 | CNC(=O)c1cnc2ccc(-c3nc(N[C@@H]4CCOC[C@H]4O)ncc3F)cc2c1C(C)C [Example 1, 6-(5-fluoro-2-(((3S,4R)-3-hydroxytetrahydro-2H-pyran-4-yl)amino)pyrimidin-4-yl)-4-isopropyl-N-methyl quinoline-3-carboxamide] | 0.067 µM | 0.67 µM
2 | CC(C)c1ccnc2ccc(-c3nc(N[C@@H]4CCOC[C@H]4O)ncc3Cl)cc12 [Example 4, (3S,4R)-4-((5-chloro-4-(4-isopropylquinolin-6-yl)pyrimidin-2-yl)amino)tetrahydro-2H-pyran-3-ol] | 0.038 µM | 0.418 µM
3 | Cc1cc(C(C)C)c2cc(-c3nc(N[C@@H]4CCOC[C@H]4O)ncc3Cl)ccc2n1 [Example 5, (3S,4R)-4-((5-chloro-4-(4-isopropyl-2-methylquinolin-6-yl)pyrimidin-2-yl)amino)tetrahydro-2H-pyran-3-ol] | 0.108 µM | 0.81 µM
4 | Cc1nc2ccc(-c3nc(N[C@@H]4CCOC[C@H]4O)ncc3F)cc2c(C(C)C)c1C [Example 7, (3S,4R)-4-((5-fluoro-4-(4-isopropyl-2,3-dimethylquinolin-6-yl)pyrimidin-2-yl)amino)tetrahydro-2H-pyran-3-ol] | 0.044 µM | 0.528 µM
5 | Cc1c(-c2nc(N[C@@H]3CCOC[C@H]3O)ncc2F)ccc2nccc(C(C)C)c12 [Example 9, (3S,4R)-4-((5-fluoro-4-(4-isopropyl-5-methylquinolin-6-yl)pyrimidin-2-yl)amino)tetrahydro-2H-pyran-3-ol] | 0.021 µM | 0.0924 µM
6 | Cc1cc(C(C)C)c2cc(-c3nc(N[C@@H]4CCOC[C@H]4O)ncc3F)ccc2n1 [Example 10, (3S,4R)-4-((5-fluoro-4-(4-isopropyl-2-methylquinolin-6-yl)pyrimidin-2-yl)amino)tetrahydro-2H-pyran-3-ol] | 0.077 µM | 0.924 µM
7 | CC(C)c1c(CN(C)C)cnc2ccc(-c3nc(N[C@@H]4CCOC[C@H]4O)ncc3F)cc12 [Example 11, (3S,4R)-4-((4-(3-((dimethylamino)methyl)-4-isopropylquinolin-6-yl)-5-fluoropyrimidin-2-yl)amino)tetrahydro-2H-pyran-3-ol] | 0.021 µM | 0.567 µM
8 | CC(C)c1c(CN2CCCC2=O)cnc2ccc(-c3nc(N[C@@H]4CCOC[C@H]4O)ncc3F)cc12 [Example 12, 1-((6-(5-fluoro-2-(((3S,4R)-3-hydroxytetrahydro-2H-pyran-4-yl)amino)pyrimidin-4-yl)-4-isopropylquinolin-3-yl)methyl)pyrrolidin-2-one] | 0.019 µM | 0.323 µM
9 | CC(C)c1c(CN2CCOCC2=O)cnc2ccc(-c3nc(N[C@@H]4CCOC[C@H]4O)ncc3F)cc12 [Example 13, 4-((6-(5-fluoro-2-(((3S,4R)-3-hydroxytetrahydro-2H-pyran-4-yl)amino)pyrimidin-4-yl)-4-isopropylquinolin-3-yl)methyl)morpholin-3-one] | 0.016 µM | 0.464 µM
10 | CC(C)c1c(CN2CC3CC(C2)O3)cnc2ccc(-c3nc(N[C@@H]4CCOC[C@H]4O)ncc3F)cc12 [Example 14, (3S,4R)-4-((4-(3-((6-oxa-3-azabicyclo[3.1.1]heptan-3-yl)methyl)-4-isopropylquinolin-6-yl)-5-fluoropyrimidin-2-yl)amino)tetrahydro-2H-pyran-3-ol] | 0.012 µM | 0.228 µM
11 | Cc1nc2ccc(-c3nc(N[C@@H]4CCOC[C@H]4O)ncc3F)cc2c(C(C)C)c1CO [Example 15, (3S,4R)-4-((5-fluoro-4-(3-(hydroxymethyl)-4-isopropyl-2-methylquinolin-6-yl)pyrimidin-2-yl)amino)tetrahydro-2H-pyran-3-ol] | 0.043 µM | 0.559 µM
12 | CC(C)c1c(CN2CC[C@H](F)C2)cnc2ccc(-c3nc(N[C@@H]4CCOC[C@H]4O)ncc3F)cc12 [Example 18, (3S,4R)-4-((5-fluoro-4-(3-(((S)-3-fluoropyrrolidin-1-yl)methyl)-4-isopropylquinolin-6-yl)pyrimidin-2-yl)amino)tetrahydro-2H-pyran-3-ol] | 0.026 µM | 0.598 µM
13 | CC(C)c1c(CNC2CCC2)cnc2ccc(-c3nc(N[C@@H]4CCOC[C@H]4O)ncc3F)cc12 [Example 19, (3S,4R)-4-((4-(3-((cyclobutylamino)methyl)-4-isopropylquinolin-6-yl)-5-fluoropyrimidin-2-yl)amino)tetrahydro-2H-pyran-3-ol] | 0.02 µM | 1.22 µM
14 | CC(C)c1c(CNC2CCOC2)cnc2ccc(-c3nc(N[C@@H]4CCOC[C@H]4O)ncc3F)cc12 (stereo partly drawn) [Example 21, (3S,4R)-4-((5-fluoro-4-(4-isopropyl-3-(((tetrahydrofuran-3-yl)amino)methyl)quinolin-6-yl)pyrimidin-2-yl)amino)tetrahydro-2H-pyran-3-ol] | 0.015 µM | 0.495 µM

Next, values leading:

Row | IC50 [1] | IC50 [2] | Compound
15 | 0.0046 µM | 0.069 µM | CC(C)c1c(C(C)(C)O)cnc2ccc(-c3nc(N[C@@H]4CCOC[C@H]4O)ncc3F)cc12 [Example 2]
16 | 0.0049 µM | 0.0735 µM | CC(C)c1c(CO)cnc2ccc(-c3nc(N[C@@H]4CCOC[C@H]4O)ncc3F)cc12 [Example 3, (3S,4R)-4-((5-fluoro-4-(3-(hydroxymethyl)-4-isopropylquinolin-6-yl)pyrimidin-2-yl)amino)tetrahydro-2H-pyran-3-ol]
17 | 0.0093 µM | 0.158 µM | Cc1cnc2ccc(-c3nc(N[C@@H]4CCOC[C@H]4O)ncc3F)cc2c1C(C)C [Example 6, (3S,4R)-4-((5-fluoro-4-(4-isopropyl-3-methylquinolin-6-yl)pyrimidin-2-yl)amino)tetrahydro-2H-pyran-3-ol]
18 | 0.014 µM | 0.252 µM | CC(C)c1ccnc2ccc(-c3nc(N[C@@H]4CCOC[C@H]4O)ncc3F)cc12 [Example 8, (3S,4R)-4-((5-fluoro-4-(4-isopropylquinolin-6-yl)pyrimidin-2-yl)amino)tetrahydro-2H-pyran-3-ol]
19 | 0.015 µM | 0.6 µM | CC(C)c1c(CN2CC(O)C2)cnc2ccc(-c3nc(N[C@@H]4CCOC[C@H]4O)ncc3F)cc12 [Example 16, 1-((6-(5-fluoro-2-(((3S,4R)-3-hydroxytetrahydro-2H-pyran-4-yl)amino)pyrimidin-4-yl)-4-isopropylquinolin-3-yl)methyl)azetidin-3-ol]
20 | 0.011 µM | 0.187 µM | CC(C)c1c(CN2CCOCC2)cnc2ccc(-c3nc(N[C@@H]4CCOC[C@H]4O)ncc3F)cc12 [Example 17, (3S,4R)-4-((5-fluoro-4-(4-isopropyl-3-(morpholinomethyl)quinolin-6-yl)pyrimidin-2-yl)amino)tetrahydro-2H-pyran-3-ol]
21 | 0.012 µM | 0.6 µM | CC(C)c1c(CNC2CC(F)(F)C2)cnc2ccc(-c3nc(N[C@@H]4CCOC[C@H]4O)ncc3F)cc12 [Example 20, (3S,4R)-4-((4-(3-(((3,3-difluorocyclobutyl)amino)methyl)-4-isopropylquinolin-6-yl)-5-fluoropyrimidin-2-yl)amino)tetrahydro-2H-pyran-3-ol]
22 | 0.0071 µM | 0.398 µM | CC(C)NCc1cnc2ccc(-c3nc(N[C@@H]4CCOC[C@H]4O)ncc3F)cc2c1C(C)C [Example 22, (3S,4R)-4-((5-fluoro-4-(4-isopropyl-3-((isopropylamino)methyl)quinolin-6-yl)pyrimidin-2-yl)amino)tetrahydro-2H-pyran-3-ol]
